Experimental data from paper PMC5839409, “Targeting intracellular B2 receptors using novel cell-penetrating antagonists to arrest growth and induce apoptosis in human triple-negative breast cancer” (Oncotarget, 2018).

Columns and labels:
[1] = tested on: MDA-MB-231 cells; experiment: Annexin V/PI apoptosis and beta-galactosidase senescence assays; type: cell-based, human; conditions: Annexin V and active caspase-3 positivity 24h; β-galactosidase 72h
Description: The effect of B2RAs on cellular senescence was assessed using the Senescence β-Galactosidase Staining Kit (Cell Signaling). MDA-MB-231 cells were plated at 500 000 cells/well in 6-well plates, and serum-starved right before the beginning of treatments. Cells were treated with and without the B2RAs at the indicated concentrations for 72 h. At the end of treatment, surviving cells were fixed with 2% formaldehyde, 0.2% glutaraldehyde for 15 min at room temperature. Fixed cells were then washed and stained with fresh senescence-associated β-galactosidase stain solution (sodium phosphate buffer, pH 6.0, containing 1mg of X-gal (5-bromo-4-chloro-3-indolyl-β-d-galactopyranoside)/ml 40 mM citric acid, 5 mM potassium ferrocyanide, 5 mM potassium ferricyanide, 150 mM NaCl, 2 mM MgCl2) at 37°C. Staining was detected by light microscopy. As a positive control for senescence, we serum starved porcine cerebral microvascular endothelial cells (pCMVEC) (kindly provided by S Chemtob) for 48 h.
MDA-MB-231 and COS-1 cells were plated at 500,000/well in 6-well plates containing medium (10% FBS/DMEM), and allowed to adhere for about 18 h. On the next day, cells were serum-starved and then treated with and without the B2RAs at the indicated concentrations for 24 h. To assess induction of apoptosis due to treatment, we used the Annexin-V-FLUOS Staining kit (Roche) according to manufacturer’s specifications. Briefly, at the end of treatments, cells were harvested, rinsed and incubated in 100 µl of Annexin-V-FLUOS labeling solution (containing 2 µl of Annexin-V-Fluos reagent and 1 µl of PI (15 µg/ml)) for 15 min at room temperature. Cells were analyzed on a FACSCanto II flow cytometer (BD Biosciences). Early stage apoptosis was measured using annexin V-Fluos (RocheMolecular Biochemicals) in conjunction with PI (Sigma) to distinguish among early apoptosis and late apoptosis/necrosis. Bar diagram showing the distribution of early, late/necrotic cell populations.

[2] = tested on: MDA-MB-231 cells; experiment: PI staining cell cycle analysis by flow cytometry; type: cell-based, human; conditions: 24 h treatment; HOE 140 up to 100 μM
Description: MDA-MB-231 were plated at 500,000/plate in 10 cm plates containing medium (10% FBS/DMEM), and allowed to adhere for about 18 h. Thereafter, cells were serum-starved and treated with and without the B2RAs at the indicated concentrations for 24 h. At the end of treatments, cells were harvested, rinsed and fixed with ice cold ethanol 95%, for 2 h at 4°C. Fixed cells were rehydrated with 800 µl PBS for 30 min, and then washed again with PBS to remove all traces of ethanol. Cells were treated with RNase for 30 min prior to staining. PI was added to cell suspension at a concentration of 15 µg/ml and incubated overnight at 4°C. PI staining was assessed by flow cytometry using a FACSCanto II flow cytometer (BD Biosciences).

[3] = tested on: MDA-MB-231 cells; experiment: cDNA SuperArray Human Signal Transduction Pathway Finder analysis; type: cell-based; conditions: 10 μM / 3h, relative to untreated controls
Description: cDNA SuperArray analysis manufacturer ’s instructions (SuperArray Bioscience). For cDNA microarray analysis, equal amounts of cRNA (3
The GEArray Q-series array of Human Signal µg) were biotinylated, then the probes were hybridized Transduction Pathway Finder (catalog OHS-014; onto the membranes containing specific genes for several SuperArray Bioscience) was used to quantify the transduction pathways. After extensive washing, specific expression of 113 genes representative of 18 signal hybridization onto the membranes was detected by transduction pathways. […] A […]
cells were incubated or not with FR173657 (10 µM) in fold change cutoff of ≥1.5 as compared to control cells DMEM for 3 hours at 37°C. At the end of treatments, cells was set to identify regulated genes. were collected, lysed and total RNA was purified using an ArrayGrade Total RNA Isolation kit according to the Supplementary Table 1: Marked gene expression changes in FR173657-treated MDA-MB-231 cells relative to untreated controls
Description GenBank acc. Symbol Fold change
NLR family, apoptosis inhibitory protein NM_004536 NAIP 1,50
Cyclin-dependent kinase inhibitor 1B (p27, Kip1) NM_004064 CDKN1B 1,70
Cyclin-dependent kinase inhibitor 2B (p15, inhibits CDK4) NM_004936 CDKN2B 1,80 Cyclin-dependent kinase inhibitor 2C (p18, inhibits CDK4) NM_078626 CDKN2C 2,20 Caudal type homeobox transcription factor 1 NM_001804 CDX1 1,80
CCAAT/enhancer binding protein (C/EBP), beta NM_005194 CEBPB 1,70 […]
Platelet/endothelial cell adhesion molecule (CD31 antigen) NM_000442 PECAM1 3,90 Nitric oxide synthase 2A (inducible, hepatocytes) NM_000625 NOS2A –1,50 […]
Overall, the data generated from the transcriptional profiling study are, in general, in good agreement with the strong anticancer activity of FR173657 observed in MDA-MB-231 cells.

CC(=O)Nc1ccc(/C=C/C(=O)NCC(=O)N(C)c2ccc(Cl)c(COc3cccc4ccc(C)nc34)c2Cl)cn1 [FR 173657]
induction of apoptosis / senescence [1]: underwent apoptosis, but not senescence
cell cycle distribution [2]: tend to induce G0/G1 cell cycle arrest
Fold change BMP4 gene expression [3]: 1,50 fold
Fold change CCL20 gene expression [3]: 1,50 fold
Fold change CDKN1B (p27, Kip1) gene expression [3]: 1,70 fold
Fold change CDKN2B gene expression [3]: 1,80 fold
Fold change CDKN2C gene expression [3]: 2,20 fold
Fold change CDX1 gene expression [3]: 1,80 fold
Fold change CEBPB gene expression [3]: 1,70 fold
Fold change CTSD gene expression [3]: 1,60 fold
Fold change CXCL9 gene expression [3]: 1,70 fold
Fold change EGR1 gene expression [3]: 1,60 fold
Fold change HOXB1 gene expression [3]: 1,60 fold
Fold change MMP10 gene expression [3]: 3,50 fold
Fold change NAIP gene expression [3]: 1,50 fold
Fold change NOS2A gene expression [3]: –1,50 fold
Fold change PECAM1 gene expression [3]: 3,90 fold
Fold change TFRC gene expression [3]: –1,50 fold
